Assay results taken from paper PMC10661096, “Cryopreservation of assay-ready hepatocyte monolayers by chemically-induced ice nucleation: preservation of hepatic function and hepatotoxicity screening capabilities” (Biomaterials Science, 2023).
Values joined by “and” are separate entries in the source; they are usually repeats but may differ in a detail not shown here. Equal entries are not always repeated.

What was measured:
HepG2 cells [1] = assay: Drug dose–response, resazurin reduction cell viability; format: cell-based; details: Homo sapiens, HepG2, 24 h, 24 h treatment
Procedure: Statistical analysis and data visualization were performed using GraphPad Prism 8 (La Jolla, California, USA). The Shapiro-Wilk test and Levene test were utilized to assess the normality of the data and equality of variances between groups. If the data met the assumptions of normality and equal variance, it was reported as mean ± SEM. Statistical significance between the means of 2 groups were assessed using an unpaired (independent) T-test and for 2+ groups a one-way analysis of variance (ANOVA), followed by Tukey's post hoc analysis, was used. […] Statistical significance between means was determined using Welch's t-test. The significance levels were represented as follows: not significant (ns) for p ≥ 0.05, * for p ≤ 0.05, ** for p ≤ 0.01, and **** for p ≤ 0.0001. Dose–response curves were generated using nonlinear regression with a variable slope (four parameters) fitted by the least squares regression method, without any weighting. GraphPad determined the EC50 values based on the fitting process. […] Fluorescence measurements were recorded with excitation and emission at 530/25 nm and 590/30 using a BioTek Synergy HT microplate reader. Wells with resazurin solution alone were also measured for background subtraction and cells untreated with pharmaceutically active compounds were measured as a maximum resazurin reduction value. […] Cell culture medium was replaced by cell culture media supplemented with acetaminophen (0–92.6 mM), diclofenac (0–3.4 mM), doxorubicin (0–9.2 mM), metformin (0–310 µM), phenformin (0–97.4 µM) and valproic acid (0–50 mM) and […] The cell culture medium was replaced with 100 µL of resazurin solution, prepared by dissolving 1 resazurin tablet (Scientific Laboratory Supplies, Nottingham, UK) in 50 mL of phenol-free DMEM/F-12 medium supplemented with 10% FBS and sterile filtered. The cells were incubated for 2 h in […] Fluorescence measurements were recorded with excitation and emission at 530/25 nm and 590/30 using a BioTek Synergy HT microplate reader. Wells with resazurin solution alone were also measured for background subtraction and cells untreated with pharmaceutically active compounds were measured as a maximum resazurin reduction value. Percentage cell viability was reported using the fluorescence readings using the following equation: Sample Fluorescence − Background Fluorescence x 100 Maximum (Untreated) Fluorescence − Background Fluorescence 1.7 Primary Hepatocyte Cryopreservation Mice were bred at the University of Warwick after local AWERB and Home Office approvals (PP3644080). Hepatocytes were isolated from adult (8- to 12-weeks old) male and female C57BL/6NCrl mice livers, via a two-step perfusion process. After cervical dislocation, the peritoneal cavity was open and a 27G needle was inserted into the vena cava. Perfusion was carried out through the vena cava at a flow rate of 6 mL.min-1 for 10 mins with buffers warmed S11

[2] = tested on: primary mouse hepatocytes; assay: as above; format: cell-based; details: Hepatocyte, 24 h, 24 h treatment
Procedure: Non-frozen and freeze/thaw hepatocytes were treated with diclofenac (0–3.4 μM) and metformin (0–77.4 mM) and placed in a humidified environment at 37 °C and 5% CO2 for 24 h. The cell culture medium was replaced with 100 μL of resazurin solution and the cells were incubated for 2 h in a humidified environment at 37 °C and 5% CO2. Fluorescence measurements were recorded with excitation and emission at 530/25 nm and 590/30 using a BioTek Synergy HT microplate reader. […] Percentage cell viability was reported using the fluorescence readings using the following equation: [drawing 2]
The cell culture medium of freeze/thaw hepatocytes, produced in section 1.7, was replaced by
maintenance medium supplemented with diclofenac (0–3.4 mM) and metformin (0–77 µM)
and placed in a humidified environment at 37 °C and 5% CO2 for 24 h. The cell culture medium
(Scientific Laboratory Supplies, Nottingham, UK) in 50 mL of maintenance medium
supplemented with 10% FBS and sterile filtered. The cells were incubated for 24 h in a
humidified environment at 37 °C and 5% CO2. Fluorescence measurements were recorded with
𝑆𝑎𝑚𝑝𝑙𝑒 𝐹𝑙𝑢𝑜𝑟𝑒𝑠𝑐𝑒𝑛𝑐𝑒 − 𝐵𝑎𝑐𝑘𝑔𝑟𝑜𝑢𝑛𝑑 𝐹𝑙𝑢𝑜𝑟𝑒𝑠𝑐𝑒𝑛𝑐𝑒 x 100
𝑀𝑎𝑥𝑖𝑚𝑢𝑚 (𝑈𝑛𝑡𝑟𝑒𝑎𝑡𝑒𝑑) 𝐹𝑙𝑢𝑜𝑟𝑒𝑠𝑐𝑒𝑛𝑐𝑒 − 𝐵𝑎𝑐𝑘𝑔𝑟𝑜𝑢𝑛𝑑 𝐹𝑙𝑢𝑜𝑟𝑒𝑠𝑐𝑒𝑛𝑐𝑒

HepG2 cells [3] = assay: Post-thaw percentage cell recovery of monolayers in 96 well plates (Trypan Blue counts); format: cell-based, Human; details: −80 °C, 24 h post-thaw, additives supplemented with 10% DMSO
Procedure: (§1) HepG2 cells (density dependent on assay) and mouse hepatocytes (30k cell per well) were plated on rat tail type I collagen (100 μg mL^−1) coated 96 well plates and incubated for 24 hours. The cryoprotectant solution was prepared in advance. Hornbeam pollen (0.8 g) was suspended in sterile water (10 mL) for 24 h at 4 °C. The solution was sterile filtered and mixed 1 : 1 with either Eagle's minimum essential base medium (HepG2) or Williams E base medium (Mouse hepatocytes) supplemented with 20% FBS and 20% DMSO (final concentration 10%) to produce the cryopreservation formulation. The cell culture medium of the cells was replaced with 100 μL of the prechilled cryopreservation formulation (4 °C) and the plates were placed on a Corning XT CoolSink 96F and in a −80 °C freezer overnight. HepG2 cells and hepatocytes were also cryopreserved with 10% DMSO alone in cell culture medium for comparison. To thaw the cells, 150 μL of warm complete/thawing cell culture medium (37 °C) was added and the plates were placed in the incubator for 12 min. […]
(§2) HepG2 cells were cryopreserved between 1.6–30k cell per well and hepatocytes at a density of 30k cell per well. […] Freeze/Thaw and non-frozen HepG2 cells were counted daily until 80–90% confluency was reached to determine proliferation rates. […]

HepG2 cells [4] = details: cited from earlier work; for Post-thaw cell recovery after preconditioning: HepG2 cells and other cell lines, increased from approximately 10–20% ref 22,23
A549 cells = assay: Post-thaw percentage cell recovery of monolayers in 96 well plates; format: cell-based, Human; details: 24 h post-thaw
Procedure: °C and 150 µL of warm complete cell medium (37 °C) was added. The cells were placed in the incubator for 12 mins, to allow thawing, and the solutions were replaced with 200 µL of warm complete cell medium (37 °C). The cells were placed in the incubator for a further 24 h.
Percentage cell recovery was determined by dissociating cells with trypsin (0.25%) and EDTA (1 mM), staining the cells with trypan blue (to count membrane intact cells) and comparing cell counts immediately before and 24 h after freeze/thaw. A549 cells were cryopreserved using the same approach as confluent monolayers (20k cells/well) and varying cell densities (outlined throughout) as another comparative cell line, using Ham's F-12K (Kaighn's) Medium supplemented with 10% FBS and 1% PSA as the complete growth medium and Ham's F-12K (Kaighn's) Medium alone as the base medium. Cell recovery values were also obtained for plates containing A549 and HepG2 cells stored for over 1 month in a -80 °C freezer.
1.5 Assessing Cellular Health
HepG2 cells (7.5k cell/well) were seeded in collagen (12.7 µg/cm2) coated 96 well plates and A549 cells (7.5k cell/well) were seeded in collagen uncoated 96 well plates. The plates were freeze/thawed as described in section 1.4. […]

[5] = tested on: primary mouse hepatocytes; assay: Post-thaw percentage cell recovery of monolayers in 96 well plates (Trypan Blue counts); format: cell-based; details: primary mouse hepatocyte monolayers, 24 h post-thaw
Procedure: as §1, §2

[6] = Freeze/Thaw HepG2 cells (24 h post-thaw)
[7] = Freeze/Thaw adherent primary mouse hepatocytes
[8] = Non-frozen primary mouse hepatocytes

## [H]/N=C(/N)N/C(=N/[H])NCCc1ccccc1 [Phenformin, phenformin]
HepG2 cells [1]; [6]
  EC50: 290 µM
HepG2 cells [1]; Non-frozen HepG2 cells
  EC50: 330 µM

## CC(=O)Nc1ccc(O)cc1 [Acetaminophen, acetaminophen]
HepG2 cells [1]; [6]
  EC50: 11700 µM
HepG2 cells [1]; Non-frozen HepG2 cells
  EC50: 14200 µM

## CN(C)C(=N)N=C(N)N [Metformin, metformin]
[2]; [7]
  EC50: 600 µM
[2]; [8]
  EC50: 780 µM
HepG2 cells [1]; [6]
  EC50: 4280 µM
HepG2 cells [1]; Non-frozen HepG2 cells
  EC50: 3780 µM

## CC(C)CCC[C@@H](C)[C@H]1CC[C@H]2[C@@H]3CC=C4C[C@@H](O)CC[C@]4(C)[C@H]3CC[C@]12C.O [cholesterol monohydrate]
HepG2 cells [3]
  Post-thaw percentage cell recovery: ~60%

## OC[C@H]1O[C@H](O[C@H]2O[C@H](CO)[C@@H](O)[C@H](O)[C@H]2O)[C@H](O)[C@@H](O)[C@@H]1O [trehalose]
HepG2 cells [4]
  Post-thaw cell recovery after preconditioning: 50%
HepG2 cells [4]; HepG2 monolayers ref 23
  Cell recovery after preconditioning with trehalose: 42%

## C[S+](C)[O-] [10% DMSO, dimethyl sulfoxide]
HepG2 cells [3]
  Post-thaw percentage cell recovery: 10% and 12.6%
A549 cells
  Post-thaw percentage cell recovery: 29%
[5]
  Post-thaw percentage cell recovery: 50%

## O=C(O)[C@@H]1CCCN1 [proline]
HepG2 cells [4]
  Post-thaw cell recovery after preconditioning: 50%

## O=C(O)Cc1ccccc1Nc1c(Cl)cccc1Cl [Diclofenac, diclofenac]
[2]; [7]
  EC50: 880 µM
[2]; [8]
  EC50: 780 µM

## COc1cccc2c1C(=O)c1c(O)c3c(c(O)c1C2=O)C[C@@](O)(C(=O)CO)C[C@@H]3O[C@H]1C[C@H](N)[C@H](O)[C@H](C)O1 [Doxorubicin, doxorubicin]
HepG2 cells [1]; [6]
  EC50: 16.3 µM
HepG2 cells [1]; Non-frozen HepG2 cells
  EC50: 2 µM

## CCCC(CCC)C(=O)O [VPA, valproic acid]
HepG2 cells [1]; [6]
  EC50: 1790 µM
HepG2 cells [1]; Non-frozen HepG2 cells
  EC50: 2880 µM
